Several values for one entry are separate records, joined by “and”; a condition that tells them apart may be missing. Equal values may be shown once. Read-outs that look alike come from different tables or passages of the source.
Assay: Stability and biodistribution of prodrugs in vivo (HPLC of plasma and tissues)
Set-up: species or system mice (CD-1 nude; BALB/C where indicated)
Settings: 50 mg/kg i.p. or i.v., CD-1 nude mice; for remaining at 0.5 h / remaining at 2 h / concentration at 2 h / concentration at 0.5 h: mouse
[1] = LARGE INTESTINE, 30 min, 50 mg/kg
[2] = LIVER, 120 min, listed as 552W92, 50 mg/kg
[3] = kidney, 50 mg/kg, KIDNEY, 30 min, read-out: stability: percentage of material observed as intact prodrug, kidney
[4] = kidney, 50 mg/kg, KIDNEY, 120 min, read-out: stability: percentage of material observed as intact prodrug, kidney
[5] = large intestine, 50 mg/kg, LARGE INTESTINE, 30 min, read-out: stability: percentage of material observed as intact prodrug, large intestine
[6] = large intestine, 50 mg/kg, LARGE INTESTINE, 120 min, read-out: stability: percentage of material observed as intact prodrug, large intestine
[7] = liver, 50 mg/kg, LIVER, 30 min, read-out: stability: percentage of material observed as intact prodrug, liver (converted)
[8] = liver, 50 mg/kg, LIVER, 120 min, read-out: stability: percentage of material observed as intact prodrug, liver
[9] = plasma, 50 mg/kg, PLASMA, 30 min, read-out: stability: percentage of material observed as intact prodrug, plasma
[10] = plasma, 50 mg/kg, PLASMA, 120 min, read-out: concentration of prodrug in plasma
[11] = small intestine, 50 mg/kg, SMALL INTESTINE, 30 min, read-out: stability: percentage of material observed as intact prodrug, small intestine
[12] = small intestine, 50 mg/kg, SMALL INTESTINE, 120 min, read-out: stability: percentage of material observed as intact prodrug, small intestine
[13] = spleen, 50 mg/kg, SPLEEN, 30 min, read-out: stability: percentage of material observed as intact prodrug, spleen
[14] = spleen, 50 mg/kg, SPLEEN, 120 min, read-out: stability: percentage of material observed as intact prodrug, spleen
[15] = cecum, 50 mg/kg, CECUM, 30 min, read-out: stability: percentage of material observed as intact prodrug, cecum
[16] = cecum, 50 mg/kg, CECUM, 120 min, read-out: stability: percentage of material observed as intact prodrug, cecum
[17] = plasma, 50 mg/kg, PLASMA, 30 min, read-out: concentration of prodrug in plasma
[18] = plasma, 50 mg/kg, PLASMA, 120 min, read-out: stability: percentage of material observed as intact prodrug, plasma
[19] = tumor, 50 mg/kg, TUMOR, 30 min, read-out: stability: percentage of material observed as intact prodrug, tumor
[20] = tumor, 50 mg/kg, TUMOR, 120 min, read-out: stability: percentage of material observed as intact prodrug, tumor

Row | concentration of prodrug in small intestine (SMALL INTESTINE, 30 min) [nmol/g] | concentration of prodrug in small intestine (SMALL INTESTINE, 120 min) [nmol/g] | remaining at 0.5 h [3] [%] | remaining at 2 h [4] [%] | remaining at 0.5 h [5] [%] | remaining at 2 h [6] [%] | remaining at 0.5 h [7] [%] | remaining at 2 h [8] [%] | remaining at 0.5 h [9] [%] | concentration at 2 h [10] [µM] | remaining at 0.5 h [11] [%] | remaining at 2 h [12] [%] | remaining at 0.5 h [13] [%] | remaining at 2 h [14] [%] | concentration of prodrug in cecum (CECUM, 30 min) [nmol/g] | concentration of prodrug in cecum (CECUM, 120 min) [nmol/g] | concentration of prodrug in kidney (KIDNEY, 30 min) [nmol/g] | concentration of prodrug in kidney (KIDNEY, 120 min) [nmol/g] | concentration of prodrug in large intestine (LARGE INTESTINE, 30 min) [nmol/g] | concentration of prodrug in large intestine (LARGE INTESTINE, 120 min) [nmol/g] | Compound | other results
1 | 27.7 | 1.8 | 82 | 74 | 87 | 89 | 79 | 74 | 93 | 5.1 | 10 | 1 | 95 | 89 | – | – | – | – | – | – | Cc1nc2ccc3ccc(CNc4ccc(C(=O)N[C@@H](CCC(=O)O)C(=O)N[C@@H](Cc5cccc6ccccc56)C(=O)O)c(F)c4)cc3c2c(=O)[nH]1 [Prodrug 3, N-(N-(2-fluoro-4-(((1,2-dihydro-3-methyl-1-oxobenzo(F)quinazolin-9-yl)methyl)amino)benzoyl)-L-glutam-1-yl)-3-(1-naphthyl)-L-alanine] | concentration of prodrug in kidney (KIDNEY, 30 min, 50 mg/kg): 41.7 nmol/g and 29.2 nmol/g; concentration of prodrug in large intestine [1]: 23.4 nmol/g and 14.9 nmol/g; stability: percentage of material observed as intact prodrug, large intestine [1]: 94%; concentration of prodrug in large intestine (LARGE INTESTINE, 120 min, listed as 552W92, 50 mg/kg): 1.7 nmol/g and 1.1 nmol/g; concentration of prodrug in liver (LIVER, 30 min, 50 mg/kg): 128.8 nmol/g and 135.3 nmol/g; concentration of prodrug in liver [2]: 267.9 nmol/g and 371.2 nmol/g; stability: percentage of material observed as intact prodrug, liver [2]: 90%; stability: percentage of material observed as intact prodrug, plasma (PLASMA, 120 min, listed as 552W92, 50 mg/kg): 48%; concentration (PLASMA, 120 min, listed as 552W92, 50 mg/kg, 120 min, read-out: concentration of prodrug in plasma): 2.8 µM; stability: percentage of material observed as intact prodrug, spleen (SPLEEN, 30 min, 50 mg/kg): 100%; stability: percentage of material observed as intact prodrug, spleen (SPLEEN, 120 min, listed as 552W92, 50 mg/kg): 100%
2 | 188.1 | 69.1 | 100 | 99 | 100 | 100 | 99 | 98 | 100 | 1.4 | 99 | 98 | 99 | – | 6.7 | 1.3 | 94.5 | 14.5 | 25.3 | 45.4 | Cc1nc2ccc3ccc(CNc4ccc(C(=O)N[C@@H](CCC(=O)O)C(=O)N[C@@H](Cc5ccccc5C(=O)O)C(=O)O)c(F)c4)cc3c2c(=O)[nH]1 [Prodrug 4, N-(N-(4(((1,2-dihydro-3-methyl-1-oxobenzo(F)quinazolin-9-yl)methyl)amino)-2-fluorobenzoyl)-L-glutam-1-yl)-2-carboxy-L-phenylanine] | concentration of prodrug in liver (LIVER, 30 min): 343.4 nmol/g; concentration of prodrug in liver (LIVER, 120 min): 33.3 nmol/g; concentration of prodrug in spleen (SPLEEN, 30 min): 30.9 nmol/g; concentration of prodrug in tumor (TUMOR, 30 min): 6.7 nmol/g; concentration of prodrug in tumor (TUMOR, 120 min): 1.3 nmol/g; remaining at 0.5 h [15]: 100%; remaining at 2 h [16]: 100%; concentration at 0.5 h [17]: 71.4 µM; remaining at 2 h [18]: 99%; remaining at 0.5 h [19]: 100%; remaining at 2 h [20]: 100%
3 | 32.1 | 1.6 | 83 | 96 | 93 | 8 | 81 | 41 | 98 | 9.4 | 40 | 2 | 85 | 81 | 4.7 | 2.9 | 42.5 | 3.0 | 28.4 | 1.6 | Cc1nc2ccc3ccc(CNc4ccc(C(=O)N[C@@H](CCC(=O)O)C(=O)N[C@@H](Cc5ccccc5I)C(=O)O)c(F)c4)cc3c2c(=O)[nH]1 [Prodrug 5] | concentration of prodrug in liver (LIVER, 30 min): 118.2 nmol/g; concentration of prodrug in liver (LIVER, 120 min): 7.5 nmol/g; concentration of prodrug in spleen (SPLEEN, 30 min): 34.3 nmol/g; concentration of prodrug in spleen (SPLEEN, 120 min): 3.2 nmol/g; concentration of prodrug in tumor (TUMOR, 30 min): 4.7 nmol/g; concentration of prodrug in tumor (TUMOR, 120 min): 2.9 nmol/g; remaining at 0.5 h [15]: 95%; remaining at 2 h [16]: 88%; concentration at 0.5 h [17]: 115 µM; remaining at 2 h [18]: 95%; remaining at 0.5 h [19]: 95%; remaining at 2 h [20]: 88%

From US6319702A, “Nucleic acids encoding mutant human carboxypeptidase A enzymes” (Glaxo Wellcome, Inc., priority 1993, dated 2001)
